Experimental data from ChEMBL document CHEMBL4507311, “Data for DCP probe A-1155463” (2021).

Assays:
[1] = molecular target: Sodium-dependent noradrenaline transporter (Homo sapiens) (UniProt P23975); experiment: norepinephrine transporter (h) Eurofins-Cerep binding assay; set-up: ligand concentration 1 nM; settings: filed as antagonist, Compound concentration 10.0 uM
[2] = molecular target: Substance-K receptor (Homo sapiens) (UniProt P21452); experiment: NK2 (h) Eurofins-Cerep binding assay; set-up: ligand concentration 0.1 nM; settings: filed as agonist, Compound concentration 10.0 uM
[3] = molecular target: Histamine H1 receptor (Homo sapiens) (UniProt P35367); experiment: H1 (h) Eurofins-Cerep binding assay; set-up: ligand concentration 1 nM; settings: filed as antagonist, Compound concentration 10.0 uM
[4] = molecular target: L-type Ca2+ channel (diltiazem site, benzothiazepines) (Rattus norvegicus, UniProt P22002+P27732+Q02485); experiment: Ca2+ channel (L, diltiazem site) (benzothiazepines) Eurofins-Cerep binding assay; assay type: protein assay; set-up: incubation time 120 min, incubation temperature RT, ligand concentration 15 nM; settings: rat cerebral cortex, probe [3H]diltiazem (15 nM), compound concentration 10 uM, read-out: % Inhibition of Control Specific Binding (Mean n=2)
[5] = molecular target: Induced myeloid leukemia cell differentiation protein Mcl-1 (Homo sapiens, UniProt Q07820); experiment: Time-resolved fluorescence energy transfer (TR-FRET) with MCL1
[6] = molecular target: Angiotensin-converting enzyme (Homo sapiens) (UniProt P12821); experiment: ACE (h) Eurofins-Cerep enzyme and uptake assay; settings: Compound concentration 10.0 uM
[7] = molecular target: Peroxisome proliferator-activated receptor gamma (Homo sapiens) (UniProt P37231); experiment: PPARgamma (h) Eurofins-Cerep binding assay; set-up: ligand concentration 5 nM; settings: filed as agonist, Compound concentration 10.0 uM
[8] = molecular target: B2 bradykinin receptor (Homo sapiens) (UniProt P30411); experiment: B2 (h) Eurofins-Cerep binding assay; set-up: ligand concentration 0.3 nM; settings: filed as agonist, Compound concentration 10.0 uM
[9] = molecular target: T1, 5-hydroxytryptamine receptor 1A (Homo sapiens) (UniProt P08908); experiment: 5-HT1A (h) Eurofins-Cerep binding assay; set-up: ligand concentration 0.5 nM; settings: filed as agonist, Compound concentration 10.0 uM
T1 sequence (whole entry): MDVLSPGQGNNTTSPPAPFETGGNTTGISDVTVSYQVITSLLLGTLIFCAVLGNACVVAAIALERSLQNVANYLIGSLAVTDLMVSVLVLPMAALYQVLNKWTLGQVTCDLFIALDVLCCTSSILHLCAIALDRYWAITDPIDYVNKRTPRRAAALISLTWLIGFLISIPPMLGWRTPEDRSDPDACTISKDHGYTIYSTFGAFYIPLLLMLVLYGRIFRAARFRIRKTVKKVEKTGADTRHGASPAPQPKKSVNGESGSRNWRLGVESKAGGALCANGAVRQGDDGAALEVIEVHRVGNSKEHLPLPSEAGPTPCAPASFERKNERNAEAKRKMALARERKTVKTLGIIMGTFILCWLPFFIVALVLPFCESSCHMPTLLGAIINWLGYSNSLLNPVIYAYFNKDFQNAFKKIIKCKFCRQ

[10] = molecular target: Apoptosis regulator Bcl-2 (Homo sapiens, UniProt P10415); experiment: Time-resolved fluorescence energy transfer (TR-FRET) with BCL2
[11] = molecular target: Cannabinoid receptor 2 (Homo sapiens) (UniProt P34972); experiment: CB2 (h) Eurofins-Cerep binding assay; set-up: ligand concentration 0.8 nM; settings: filed as agonist, Compound concentration 10.0 uM
[12] = molecular target: Type-2 angiotensin II receptor (Homo sapiens) (UniProt P50052); experiment: AT2 (h) Eurofins-Cerep binding assay; set-up: ligand concentration 0.01 nM; settings: filed as agonist, Compound concentration 10.0 uM
[13] = molecular target: T2, Muscarinic acetylcholine receptor M5 (Homo sapiens) (UniProt P08912); experiment: M5 (h) Eurofins-Cerep binding assay; set-up: ligand concentration 0.3 nM; settings: filed as antagonist, Compound concentration 10.0 uM
T2 sequence (whole entry): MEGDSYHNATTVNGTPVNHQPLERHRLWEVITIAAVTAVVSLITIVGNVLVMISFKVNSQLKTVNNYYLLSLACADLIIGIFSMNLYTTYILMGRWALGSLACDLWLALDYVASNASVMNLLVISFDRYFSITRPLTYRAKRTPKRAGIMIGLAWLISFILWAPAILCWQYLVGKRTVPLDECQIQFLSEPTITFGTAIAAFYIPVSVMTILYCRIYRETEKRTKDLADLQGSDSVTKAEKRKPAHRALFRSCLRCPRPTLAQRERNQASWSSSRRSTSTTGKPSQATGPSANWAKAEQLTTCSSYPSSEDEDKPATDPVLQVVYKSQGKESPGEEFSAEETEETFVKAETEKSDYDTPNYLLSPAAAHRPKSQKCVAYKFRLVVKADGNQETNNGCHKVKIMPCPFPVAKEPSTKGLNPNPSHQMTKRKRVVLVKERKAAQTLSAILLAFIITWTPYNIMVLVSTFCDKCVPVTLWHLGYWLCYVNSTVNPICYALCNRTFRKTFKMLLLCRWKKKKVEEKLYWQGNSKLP

[14] = molecular target: 5-hydroxytryptamine receptor 1B (Homo sapiens) (UniProt P28222); experiment: 5-HT1B(h) Eurofins-Cerep binding assay; set-up: ligand concentration 1 nM; settings: filed as antagonist, Compound concentration 10.0 uM
[15] = molecular target: GABA-A receptor; alpha-1/beta-2/gamma-2 (Homo sapiens) (UniProt P14867+P47870+P18507); experiment: GABAA1 (h) (alpha1,beta2,gamma2) Eurofins-Cerep binding assay; assay type: protein-complex assay; set-up: ligand concentration 15 nM; settings: filed as agonist, Compound concentration 10.0 uM
[16] = molecular target: Prostaglandin G/H synthase 2 (Homo sapiens) (UniProt P35354); experiment: COX2(h) Eurofins-Cerep enzyme and uptake assay; settings: Compound concentration 10.0 uM
Rattus norvegicus = species on record: Rattus norvegicus; experiment: SKCa channel Eurofins-Cerep binding assay; set-up: ligand concentration 0.007 nM; settings: filed as antagonist, Compound concentration 10.0 uM
[17] = molecular target: Acetylcholinesterase (Homo sapiens) (UniProt P22303); experiment: Acetylcholinesterase (h) Eurofins-Cerep enzyme and uptake assay; settings: Compound concentration 10.0 uM
[18] = molecular target: T3, Muscarinic acetylcholine receptor M4 (Homo sapiens) (UniProt P08173); experiment: M4 (h) Eurofins-Cerep binding assay; set-up: ligand concentration 0.2 nM; settings: filed as antagonist, Compound concentration 10.0 uM
T3 sequence (whole entry): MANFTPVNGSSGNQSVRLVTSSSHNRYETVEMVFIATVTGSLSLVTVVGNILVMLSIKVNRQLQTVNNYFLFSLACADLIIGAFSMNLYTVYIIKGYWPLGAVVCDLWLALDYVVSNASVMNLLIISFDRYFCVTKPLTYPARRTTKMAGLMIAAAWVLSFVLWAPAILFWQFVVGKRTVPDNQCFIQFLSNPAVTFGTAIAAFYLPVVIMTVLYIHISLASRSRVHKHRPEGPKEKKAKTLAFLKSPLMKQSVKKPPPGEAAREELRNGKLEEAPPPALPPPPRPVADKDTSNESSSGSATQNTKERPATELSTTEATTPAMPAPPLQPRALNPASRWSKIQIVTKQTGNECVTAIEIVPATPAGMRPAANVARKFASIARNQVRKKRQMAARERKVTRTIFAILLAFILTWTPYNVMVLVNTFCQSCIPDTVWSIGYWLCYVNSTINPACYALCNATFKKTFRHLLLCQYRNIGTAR

[19] = molecular target: Motilin receptor (Homo sapiens) (UniProt O43193); experiment: motilin (h Eurofins-Cerep binding assay; set-up: ligand concentration 0.05 nM; settings: filed as agonist, Compound concentration 10.0 uM
[20] = molecular target: 5-hydroxytryptamine receptor 2A (Homo sapiens) (UniProt P28223); experiment: 5-HT2A (h) Eurofins-Cerep binding assay; set-up: ligand concentration 0.5 nM; settings: filed as antagonist, Compound concentration 10.0 uM
[21] = molecular target: GABA-A receptor; anion channel (Rattus norvegicus) (UniProt O09028+P15431+P18506+P18508+P19969+P20236+P23574+P23576+P28471+P28473+P30191+P62813+P63079+P63138+Q91ZM7+Q9ES14); experiment: Cl- channel (GABA-gated) Eurofins-Cerep binding assay; assay type: protein-complex assay; set-up: ligand concentration 3 nM; settings: filed as antagonist, Compound concentration 10.0 uM
[22] = molecular target: P2X receptor (Rattus norvegicus) (UniProt P51579+P49653+P51578+Q64663+P47824+P51577+P49654); experiment: P2X Eurofins-Cerep binding assay; assay type: protein assay; set-up: ligand concentration 3 nM; settings: filed as agonist, Compound concentration 10.0 uM
[23] = molecular target: Estrogen receptor (Homo sapiens) (UniProt P03372); experiment: Estrogen ER alpha (h) Eurofins-Cerep binding assay; set-up: ligand concentration 0.5 nM; settings: filed as agonist, Compound concentration 10.0 uM

Chain of Acetylcholinesterase (Homo sapiens) (P22303 whole entry): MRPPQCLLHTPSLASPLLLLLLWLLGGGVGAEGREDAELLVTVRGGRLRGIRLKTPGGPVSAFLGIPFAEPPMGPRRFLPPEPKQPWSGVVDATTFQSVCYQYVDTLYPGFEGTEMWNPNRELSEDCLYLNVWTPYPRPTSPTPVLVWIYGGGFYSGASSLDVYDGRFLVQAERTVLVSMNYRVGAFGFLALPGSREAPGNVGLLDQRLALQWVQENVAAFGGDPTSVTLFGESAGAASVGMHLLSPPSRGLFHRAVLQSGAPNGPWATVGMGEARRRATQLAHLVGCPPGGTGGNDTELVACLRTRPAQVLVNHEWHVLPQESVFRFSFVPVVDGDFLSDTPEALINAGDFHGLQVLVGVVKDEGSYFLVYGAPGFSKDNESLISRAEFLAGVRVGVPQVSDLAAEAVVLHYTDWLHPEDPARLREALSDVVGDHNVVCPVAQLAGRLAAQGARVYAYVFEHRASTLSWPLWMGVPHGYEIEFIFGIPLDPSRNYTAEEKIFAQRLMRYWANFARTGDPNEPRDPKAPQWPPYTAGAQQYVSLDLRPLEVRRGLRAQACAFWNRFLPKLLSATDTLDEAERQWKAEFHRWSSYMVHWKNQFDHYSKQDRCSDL
Chain of 5-hydroxytryptamine receptor 1B (Homo sapiens) (P28222 whole entry): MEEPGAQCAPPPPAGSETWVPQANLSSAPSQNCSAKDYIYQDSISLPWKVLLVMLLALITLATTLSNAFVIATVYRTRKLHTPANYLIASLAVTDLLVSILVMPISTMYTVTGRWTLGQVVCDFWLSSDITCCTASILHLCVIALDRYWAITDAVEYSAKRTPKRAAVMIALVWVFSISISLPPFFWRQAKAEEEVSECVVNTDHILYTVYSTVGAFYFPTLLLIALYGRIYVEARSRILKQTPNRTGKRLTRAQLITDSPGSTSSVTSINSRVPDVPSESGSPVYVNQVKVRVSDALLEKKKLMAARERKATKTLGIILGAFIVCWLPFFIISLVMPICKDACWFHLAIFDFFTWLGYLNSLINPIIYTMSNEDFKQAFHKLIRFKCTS
Chain of Apoptosis regulator Bcl-2 (P10415 whole entry): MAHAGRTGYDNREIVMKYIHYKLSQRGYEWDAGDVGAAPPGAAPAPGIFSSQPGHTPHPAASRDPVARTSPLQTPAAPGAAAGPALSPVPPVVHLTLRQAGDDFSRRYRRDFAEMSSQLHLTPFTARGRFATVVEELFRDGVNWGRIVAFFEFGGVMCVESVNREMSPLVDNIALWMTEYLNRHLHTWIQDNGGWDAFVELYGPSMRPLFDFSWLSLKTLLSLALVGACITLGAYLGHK
Chain of Motilin receptor (Homo sapiens) (O43193 whole entry): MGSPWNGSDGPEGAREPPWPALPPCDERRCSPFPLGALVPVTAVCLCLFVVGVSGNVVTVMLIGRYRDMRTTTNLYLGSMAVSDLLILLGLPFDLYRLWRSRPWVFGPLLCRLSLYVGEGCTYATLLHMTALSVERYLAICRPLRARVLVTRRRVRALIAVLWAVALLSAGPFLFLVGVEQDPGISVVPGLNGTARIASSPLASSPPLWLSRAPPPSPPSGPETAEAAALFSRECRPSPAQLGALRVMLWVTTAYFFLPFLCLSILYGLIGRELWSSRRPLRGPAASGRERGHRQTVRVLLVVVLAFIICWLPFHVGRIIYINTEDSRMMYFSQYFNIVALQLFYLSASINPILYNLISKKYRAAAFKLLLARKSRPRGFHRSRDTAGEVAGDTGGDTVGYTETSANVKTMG
Chain of Substance-K receptor (Homo sapiens) (P21452 whole entry): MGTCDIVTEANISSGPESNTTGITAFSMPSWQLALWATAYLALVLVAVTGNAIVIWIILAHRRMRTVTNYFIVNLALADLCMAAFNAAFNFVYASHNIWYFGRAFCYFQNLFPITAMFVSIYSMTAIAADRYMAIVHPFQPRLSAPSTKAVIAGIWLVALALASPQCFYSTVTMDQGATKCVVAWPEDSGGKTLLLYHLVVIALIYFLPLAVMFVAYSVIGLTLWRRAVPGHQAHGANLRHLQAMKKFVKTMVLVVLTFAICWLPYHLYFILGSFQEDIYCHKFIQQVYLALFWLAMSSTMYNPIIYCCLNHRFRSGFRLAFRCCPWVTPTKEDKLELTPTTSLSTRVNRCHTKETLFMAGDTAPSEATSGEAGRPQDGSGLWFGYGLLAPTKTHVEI
Chain of Sodium-dependent noradrenaline transporter (Homo sapiens) (P23975 whole entry): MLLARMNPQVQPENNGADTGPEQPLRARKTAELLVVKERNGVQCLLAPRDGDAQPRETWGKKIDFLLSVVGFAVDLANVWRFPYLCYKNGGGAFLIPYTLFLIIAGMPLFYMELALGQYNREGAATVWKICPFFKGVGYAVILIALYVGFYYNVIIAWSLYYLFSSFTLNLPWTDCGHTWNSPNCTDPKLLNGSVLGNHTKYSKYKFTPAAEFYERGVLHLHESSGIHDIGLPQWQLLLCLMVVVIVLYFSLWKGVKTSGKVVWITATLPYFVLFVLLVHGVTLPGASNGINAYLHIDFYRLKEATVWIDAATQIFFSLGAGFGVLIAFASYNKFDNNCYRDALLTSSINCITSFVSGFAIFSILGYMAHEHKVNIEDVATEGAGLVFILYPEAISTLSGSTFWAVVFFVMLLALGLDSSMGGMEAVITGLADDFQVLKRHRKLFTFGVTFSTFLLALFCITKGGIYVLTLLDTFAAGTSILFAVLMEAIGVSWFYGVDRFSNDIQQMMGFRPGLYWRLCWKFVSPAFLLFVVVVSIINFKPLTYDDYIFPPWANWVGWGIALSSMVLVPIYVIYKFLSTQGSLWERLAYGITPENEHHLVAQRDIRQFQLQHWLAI
Chain of Peroxisome proliferator-activated receptor gamma (Homo sapiens) (P37231 whole entry): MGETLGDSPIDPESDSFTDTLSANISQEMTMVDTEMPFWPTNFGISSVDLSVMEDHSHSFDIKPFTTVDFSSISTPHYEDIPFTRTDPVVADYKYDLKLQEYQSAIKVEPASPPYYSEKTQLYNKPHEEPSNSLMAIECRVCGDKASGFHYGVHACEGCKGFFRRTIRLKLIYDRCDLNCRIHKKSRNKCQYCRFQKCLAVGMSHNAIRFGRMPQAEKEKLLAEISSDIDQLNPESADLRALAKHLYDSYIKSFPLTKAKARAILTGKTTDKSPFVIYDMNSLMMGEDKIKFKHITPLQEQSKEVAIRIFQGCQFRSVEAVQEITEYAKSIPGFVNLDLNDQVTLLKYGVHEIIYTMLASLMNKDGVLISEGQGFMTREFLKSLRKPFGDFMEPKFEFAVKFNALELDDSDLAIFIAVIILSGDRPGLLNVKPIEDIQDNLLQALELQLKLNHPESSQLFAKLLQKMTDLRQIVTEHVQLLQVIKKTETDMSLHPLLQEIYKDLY
Chain of Cannabinoid receptor 2 (Homo sapiens) (P34972 whole entry): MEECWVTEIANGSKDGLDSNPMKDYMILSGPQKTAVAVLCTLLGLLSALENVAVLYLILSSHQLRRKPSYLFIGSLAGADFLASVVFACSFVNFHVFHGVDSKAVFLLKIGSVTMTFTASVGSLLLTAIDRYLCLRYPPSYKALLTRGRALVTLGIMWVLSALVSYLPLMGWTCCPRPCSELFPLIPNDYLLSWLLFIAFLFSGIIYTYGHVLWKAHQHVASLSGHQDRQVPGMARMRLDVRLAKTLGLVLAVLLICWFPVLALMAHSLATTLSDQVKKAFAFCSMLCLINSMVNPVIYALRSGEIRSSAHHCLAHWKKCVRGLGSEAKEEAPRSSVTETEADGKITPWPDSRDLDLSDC
Chain of Histamine H1 receptor (Homo sapiens) (P35367 whole entry): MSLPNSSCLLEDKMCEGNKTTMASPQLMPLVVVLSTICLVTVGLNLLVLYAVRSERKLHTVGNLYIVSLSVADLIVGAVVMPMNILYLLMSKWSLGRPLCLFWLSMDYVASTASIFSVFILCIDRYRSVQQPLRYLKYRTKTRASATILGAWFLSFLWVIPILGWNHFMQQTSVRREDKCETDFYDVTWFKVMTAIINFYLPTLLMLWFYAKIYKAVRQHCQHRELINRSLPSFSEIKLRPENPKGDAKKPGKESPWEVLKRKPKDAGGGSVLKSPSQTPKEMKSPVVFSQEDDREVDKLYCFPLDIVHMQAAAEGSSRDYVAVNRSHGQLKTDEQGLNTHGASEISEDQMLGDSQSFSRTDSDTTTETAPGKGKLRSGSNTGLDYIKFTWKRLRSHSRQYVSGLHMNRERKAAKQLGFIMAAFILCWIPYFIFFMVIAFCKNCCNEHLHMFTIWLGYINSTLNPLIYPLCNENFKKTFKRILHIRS
Chain of 5-hydroxytryptamine receptor 2A (Homo sapiens) (P28223 whole entry): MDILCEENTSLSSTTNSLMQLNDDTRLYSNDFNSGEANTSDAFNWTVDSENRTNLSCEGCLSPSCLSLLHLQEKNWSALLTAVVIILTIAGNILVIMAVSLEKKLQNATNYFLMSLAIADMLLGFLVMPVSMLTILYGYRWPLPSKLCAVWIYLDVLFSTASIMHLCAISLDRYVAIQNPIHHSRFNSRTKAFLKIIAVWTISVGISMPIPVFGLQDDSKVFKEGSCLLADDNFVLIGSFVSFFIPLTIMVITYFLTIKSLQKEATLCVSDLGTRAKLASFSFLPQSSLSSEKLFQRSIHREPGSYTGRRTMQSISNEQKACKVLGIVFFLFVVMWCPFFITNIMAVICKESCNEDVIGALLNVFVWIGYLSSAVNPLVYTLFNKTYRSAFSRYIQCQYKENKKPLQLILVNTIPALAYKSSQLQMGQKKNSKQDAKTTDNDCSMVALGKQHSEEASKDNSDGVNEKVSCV
Chain of Type-2 angiotensin II receptor (Homo sapiens) (P50052 whole entry): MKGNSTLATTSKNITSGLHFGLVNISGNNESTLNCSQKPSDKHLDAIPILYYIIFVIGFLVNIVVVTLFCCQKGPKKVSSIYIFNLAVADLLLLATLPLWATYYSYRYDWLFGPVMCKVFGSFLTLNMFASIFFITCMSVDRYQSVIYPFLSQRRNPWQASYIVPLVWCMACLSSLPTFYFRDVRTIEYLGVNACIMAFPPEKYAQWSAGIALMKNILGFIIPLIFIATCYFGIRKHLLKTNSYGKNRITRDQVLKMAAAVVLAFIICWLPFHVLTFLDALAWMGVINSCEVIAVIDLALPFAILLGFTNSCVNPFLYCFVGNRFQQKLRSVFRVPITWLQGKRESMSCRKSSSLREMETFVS

`CN(C)CC#Cc1ccc(OCCCc2sc(N3CCc4cccc(C(=O)Nc5nc6ccccc6s5)c4C3)nc2C(=O)O)c(F)c1` [A-1155463] showed a % Inhibition of Control Specific Binding (Mean n=2) [1] of 20.9%, a % Inhibition of Control Specific Binding (Mean n=2) [2] of 25.6% and a % Inhibition of Control Specific Binding (Mean n=2) [3] of 69.2%. The inhibition at 120 min, 10 µM [4] was 10.8%, the IC50 [5] was 14000 nM (not active) and the % Inhibition of Control Values (Mean n=2) [6] was 22.1%. The % Inhibition of Control Specific Binding (Mean n=2) [7] was 99.1%, the % Inhibition of Control Specific Binding (Mean n=2) [8] was -7% and the % Inhibition of Control Specific Binding (Mean n=2) [9] was 32.2%. The IC50 [10] was 382 nM (not active), the % Inhibition of Control Specific Binding (Mean n=2) [11] was 4.1% and the % Inhibition of Control Specific Binding (Mean n=2) [12] was 1.1%. It also gave a % Inhibition of Control Specific Binding (Mean n=2) [13] of 10.3%, a % Inhibition of Control Specific Binding (Mean n=2) [14] of -7.1% and a % Inhibition of Control Specific Binding (Mean n=2) [15] of -2.9%. For the same compound, the % Inhibition of Control Values (Mean n=2) [16] was 62.2%, the % Inhibition of Control Specific Binding (Mean n=2) (Rattus norvegicus) was -3.7% and the % Inhibition of Control Values (Mean n=2) [17] was 7.1%. The % Inhibition of Control Specific Binding (Mean n=2) [18] was 13.8%, the % Inhibition of Control Specific Binding (Mean n=2) [19] was -21.6% and the % Inhibition of Control Specific Binding (Mean n=2) [20] was 44.3%. It also gave a % Inhibition of Control Specific Binding (Mean n=2) [21] of 9.9%, a % Inhibition of Control Specific Binding (Mean n=2) [22] of 13.5% and a % Inhibition of Control Specific Binding (Mean n=2) [23] of 11.9%.
In the case of `O=C(Nc1nc2ccccc2s1)c1cccc2c1CN(c1nc(C(=O)O)c(CCOc3ccc(-n4ncc5cncnc54)cc3)s1)CC2` [A-1107969], the % Inhibition of Control Specific Binding (Mean n=2) [1] is reported as -4%, the % Inhibition of Control Specific Binding (Mean n=2) [2] is reported as 5.3% and the % Inhibition of Control Specific Binding (Mean n=2) [3] is reported as -9.3%. For the same compound, the inhibition at 120 min, 10 µM [4] was 16.2%, the IC50 [5] was 2000 nM (not active) and the % Inhibition of Control Values (Mean n=2) [6] was -17%. For the same compound, the % Inhibition of Control Specific Binding (Mean n=2) [7] was 98.2%, the % Inhibition of Control Specific Binding (Mean n=2) [8] was -20.2% and the % Inhibition of Control Specific Binding (Mean n=2) [9] was -1%. The IC50 [10] was 3780 nM (not active), the % Inhibition of Control Specific Binding (Mean n=2) [11] was -9.9% and the % Inhibition of Control Specific Binding (Mean n=2) [12] was 1.5%. For the same compound, the % Inhibition of Control Specific Binding (Mean n=2) [13] was 8.8%, the % Inhibition of Control Specific Binding (Mean n=2) [14] was -39.6% and the % Inhibition of Control Specific Binding (Mean n=2) [15] was -19.5%. It also gave a % Inhibition of Control Values (Mean n=2) [16] of 65.5%, a % Inhibition of Control Specific Binding (Mean n=2) (Rattus norvegicus) of -12.2% and a % Inhibition of Control Values (Mean n=2) [17] of 14.5%. It also gave a % Inhibition of Control Specific Binding (Mean n=2) [18] of 8.6%, a % Inhibition of Control Specific Binding (Mean n=2) [19] of 2.2% and a % Inhibition of Control Specific Binding (Mean n=2) [20] of -0.6%. For the same compound, the % Inhibition of Control Specific Binding (Mean n=2) [21] was 11.2%, the % Inhibition of Control Specific Binding (Mean n=2) [22] was -0.4% and the % Inhibition of Control Specific Binding (Mean n=2) [23] was 8.4%.
